{"source": "patent US10947260B2", "about": "“Phosphinolactone derivatives and pharmaceutical uses thereof” (INSTITUT NATIONAL DE LA SANTE ET DE LA RECHERCHE MEDICALE …, priority 2016, dated 2021)", "key": {"[1]": {"test_system": "mice treated with peptide Aβ25-35", "test": "In vivo screening of derivatives as neuroprotectors (spontaneous alternation, passive avoidance, ROS level), Aβ25-35 model", "conditions": "0.3 mg/kg IP", "description": "FIG. 7: Screening of phosphinolactones as neuroprotectors in mice treated with peptide Aβ25-35: (a) spontaneous alternation; (b) passive avoidance step-through latency; (c) Levels of reactive oxygen species in hippocampus. The mice were given compound 3b (0.3, 0.7 mg/kg IP) or a dose of each compound (0.3 mg/kg IP) 20 min before I′Aβ25-35 or the control peptide Sc.Aβ (9 nmol ICV). The animals were tested in the Y-maze on Day 7 after the ICV injections and for passive avoidance on Days 8-9, and then sacrificed. In each graph at (a-c), the 50% protection level compared with the deficit induced by Aβ25-35 is plotted as a dotted line. It is to be noted that at (a), the column represents the median and the error bars represent the deviations 25%-75% (=asymmetric deviations). n=12 at (a, b) and 5-6 at (c). ANOVA on groups 1-4: F(3.63)=7.95, p<0.001 at (b); H=24.1, p<0.0001 at (c); F(3.44)=6.33, p<0.01 at (d). *p<0.05, **p<0.01, ***p<0.001 compared with group (Sc.Aβ+V); #p<0.05, ##p<0.01, ###p<0.001 compared with group (Aβ25-35+V); Dunnett test at (a, c) and Dunn at (b). The values of the groups 5-12 (screened compounds) were analysed by t-test at (a, c) or Mann-Whitney at (b).\nFrom the molecules derived from the synthesis, a panel of 8 derivatives was selected and screened for potential neuroprotective efficacy. The compounds were injected at a dose of 0.3 mg/kg IP, i.e. the maximum non-active dose of 3b and compared with 3b injected at 0.3 and 0.7 mg/kg IP. The compounds were injected […] before the Aß25-35 peptide, and the mice were tested for spontaneous alternation on Day 7, passive avoidance on Days 8 and 9 and the ROS level was measured in the hippocampus (FIG. 7). For each response (spontaneous alternation: FIG. 7a; step-through latency in passive avoidance: FIG. 7b, and DCF fluorescence level: FIG. 7c), a 50% level of the effect between the values of the ScAß and Aß25-35 animals was taken as criterion of efficacy. […] Compound 3c is an isomer at the position of the chlorine atom of 3b. Regarding compound 3n, this has a 5-pyrimidyl group attached to the phosphorus atom, and for compound 3l it is a 4-pyridinyl group."}, "[2]": {"test_system": "mice treated with scopolamine", "test": "Spontaneous alternation in Y-maze, scopolamine amnesia model", "type": "in vivo", "description": "(§1) FIG. 5: Anti-amnesic effect of compound 3b in mice treated with scopolamine: (a, b) spontaneous alternation in Y-maze, and (c, d) passive avoidance. The mice were given compound 3b (0.03-1.5 mg/kg IP) 10 min before scopolamine (0.5 mg/kg SC), 20 min before the Y-maze session or passive avoidance training. Y-maze test: (a) spontaneous alternation and (b) total number of arm entries; retention of passive avoidance: (c) step-through latency and (d) escape latency. ANOVA: F(6.94)=5.32, p<0.0001 at (a); F(6.94)=10.6, p<0.0001 at (b); H=31.4, p<0.0001 at (c); H=24.3, p<0.001 at (d); n=12-19 per group. *p<0.05, **p<0.01, ***p<0.001 compared with group (Sc.Aβ+V); #p<0.05, ##p<0.01, ###p<0.001 compared with group (Aβ25-35+V); Dunnett test at (a, b) and Dunn at (c, d).\nFIG. 6: Analysis of the antagonism of anti-amnesic effects of compound 3b in mice treated with scopolamine: (a, c, e) spontaneous alternation in Y-maze, and (b, d, f) step-through latency at recall session of passive avoidance. The mice were treated with methyllycaconitine (MLA, 1 or 3 mg/kg IP), dihydro-ß-erythroidine (DHßE, 1 or 3 mg/kg IP), or NE100 (1 mg/kg IP), simultaneously with compound 3b (0.1 mg/kg IP) 10 min before scopolamine (S, 0.5 mg/kg SC), 20 min before behavioural session. ANOVA: F(5.87)=7.19, p<0.0001 at (a); H=31.3, p<0.0001 at (b); F(5.82)=5.82, p<0.0001 at (c); H=28.8, p<0.0001 at (d); F(4.77)=10.0, p<0.0001 at (e); H=30.5, p<0.0001 at (f); n=12-17 per group. *p<0.05, **p<0.01, ***p<0.001 compared with group (Sc.Aβ+V); #p<0.05, ##p<0.01, ###p<0.001 compared with group (Aβ25-35+V); Dunnett test at (a, b) and Dunn at (c, d).\nThe animals were tested for spontaneous alternation performance in a Y-maze, an index of spatial working memory. The Y-maze was in grey PVC. Each arm was 40 cm long, 13 cm high, 3 cm wide at the base and 10 cm wide in the upper part, and converging at an equal angle. Each mouse was placed at one end of an arm and was able to move freely through the maze during an 8-min session. The series of arm entries, including any returns in the same arm were visually analysed. Alternation is defined as being consecutive entries in three different arms. The maximum number of alternations is therefore the total number of arm entries less two, and alternation percentage is calculated as (actual alternations/maximum possible alternations)×100. […]\n(§2) Finally, a first mechanistic analysis of the pharmacological effect in vivo of compound 3b was carried out. With the objective of confirming that the compound, neuroprotective against amyloid toxicity, could also be anti-amnesic in a pharmacological amnesia model, we first determined its effectiveness against the amnesic effects of scopolamine. […]"}, "[3]": {"test_system": "mice treated with scopolamine", "test": "Passive avoidance, scopolamine amnesia model", "type": "in vivo", "description": "as §1\nFIG. 6: Analysis of the antagonism of anti-amnesic effects of compound 3b in mice treated with scopolamine: (a, c, e) spontaneous alternation in Y-maze, and (b, d, f) step-through latency at recall session of passive avoidance. The mice were treated with methyllycaconitine (MLA, 1 or 3 mg/kg IP), dihydro-ß-erythroidine (DHßE, 1 or 3 mg/kg IP), or NE100 (1 mg/kg IP), simultaneously with compound 3b (0.1 mg/kg IP) 10 min before scopolamine (S, 0.5 mg/kg SC), 20 min before behavioural session. […]\nThe apparatus contained two compartments (15×20×15 cm in height) with one light part having walls in white PVC and the other dark with walls in black PVC and a grid floor. […] Step-through latency (STL) i.e. the time taken to enter the dark compartment and the number of cries, were recorded. […] Step-through latency was recorded up to 300 s.\nas §2"}, "[4]": {"test_system": "mice", "test": "Forced swim test", "type": "in vivo", "description": "FIG. 13: Assays of compound 3b as positive modulator of the sigma-1 protein. […] Male Swiss mice aged 7 weeks (n=10-12 per group) were forced to swim for 15 min on Day 1 and 6 min on Day 2. They were given NE-100 (10 mg/kg ip), 10 min before compound 3b (10 mg/kg ip) and 20 min before the session of Day 2. Immobility was measured over the last 5 minutes of the session. The vehicle solution was distilled water. F(3.42)=4.45, p<0.01; **p<0.01 vs. group V/V, ##p<0.01 vs. group V/3b, Dunnet test. […] Wild-type mice (Wt, n=14-15) and S1R KO mice (n=9-10) were forced to swim 15 min on Day 1 and 6 min on Day 2. They were given compound 3b (10 mg/kg ip) 20 min before the session on Day 2. Immobility was measured during the last 5 minutes of the session. The vehicle solution was distilled water. F(3.49)=6.64, p<0.001; **p<0.01 vs. group Wt/V, Dunnett test. […] Male Swiss mice aged 7 weeks (n=8-23 per group) were forced to swim for 15 min on Day 1 and 6 min on Day 2. They were given igmesine (10, 30 mg/kg ip) and/or compound 3b (10 mg/kg ip) 20 min before the session on Day 2. NE-100 (10 mg/kg ip) was injected 10 min before igmesine and compound 3b. Immobility was measured during the last 5 minutes of the session. The vehicle solution was distilled water. F(6.90)=5.59, p<0.0001; ***p<0.001 vs. group V, ##p<0.01 vs. group V/Igmesine (10)+3B (5), Dunnett test."}, "[5]": {"test_system": "mice treated with Aβ25-35", "conditions": "IP; Aβ25-35 model; cited from earlier work"}, "[6]": {"conditions": "antagonist at the two doses tested (1 or 3 mg/kg IP) with 3b 0.1 mg/kg IP"}, "[7]": {"conditions": "antagonist 1 mg/kg IP with 3b 0.1 mg/kg IP"}}}
{"smiles": "CC1(C)COP(=O)(c2ccncc2)C(C)(C)N1", "note": "(racemic) [Compound 3l, (±)-2-(Pyridin-4-yl)-2-oxo-3,3,5,5-tetramethyl-[1,4,2]-oxazaphosphinane]", "values": [{"measurement": "criterion of efficacy: 50% level of the effect between ScAβ and Aβ25-35 animals (spontaneous alternation, step-through latency, DCF fluorescence)", "setting": "[1]", "result": "met the criterion for the 3 parameters"}]}
{"smiles": "CC1(C)COP(=O)(c2cncnc2)C(C)(C)N1", "note": "(racemic) [Compound 3n, (±)-2-(Pyrimidin-5-yl)-2-oxo-3,3,5,5-tetramethyl-[1,4,2]-oxazaphosphinane]", "values": [{"measurement": "criterion of efficacy: 50% level of the effect between ScAβ and Aβ25-35 animals (spontaneous alternation, step-through latency, DCF fluorescence)", "setting": "[1]", "result": "met the criterion for the 3 parameters"}]}
{"smiles": "CO[C@H]1CC=C2CCN3CCC4=C(CC(=O)OC4)[C@]23C1", "note": "[DhßE, dihydro-β-erythroidine]", "values": [{"measurement": "antagonism of the anti-amnesic effect of compound 3b, spontaneous alternation", "setting": "[2]; [6]", "result": "ineffective"}, {"measurement": "antagonism of the anti-amnesic effect of compound 3b, passive avoidance", "setting": "[3]; [6]", "result": "ineffective"}]}
{"smiles": "CCN1C[C@]2(COC(=O)c3ccccc3N3C(=O)C[C@H](C)C3=O)CC[C@H](OC)[C@@]34[C@@H]5C[C@H]6[C@H](OC)[C@@H]5[C@](O)(C[C@@H]6OC)[C@@](O)([C@@H](OC)[C@H]23)[C@@H]14", "note": "[MLA, methyllycaconitine]", "values": [{"measurement": "antagonism of the anti-amnesic effect of compound 3b, spontaneous alternation", "setting": "[2]; antagonist 3 mg/kg IP with 3b 0.1 mg/kg IP", "result": "blocked the anti-amnesic effect of compound 3b"}, {"measurement": "antagonism of the anti-amnesic effect of compound 3b, passive avoidance", "setting": "[3]; [7]", "result": "attenuated the effect"}]}
{"smiles": "CCCN(CCC)CCc1ccc(OC)c(OCCc2ccccc2)c1", "note": "[NE100]", "values": [{"measurement": "antagonism of the anti-amnesic effect of compound 3b, spontaneous alternation", "setting": "[2]; [7]", "result": "blocked the effect of compound 3b"}, {"measurement": "antagonism of the anti-amnesic effect of compound 3b, passive avoidance", "setting": "[3]; [7]", "result": "attenuated the effect"}, {"measurement": "blockade of the antidepressant effect of compound 3b", "setting": "[4]; NE-100 10 mg/kg ip, 10 min before 3b 10 mg/kg ip", "result": "blocked"}]}
{"smiles": "CCC(C/C=C/c1ccccc1)(c1ccccc1)N(C)CC1CC1", "note": "(centres unmarked) [igmesine]", "values": [{"measurement": "activity in forced swim test", "setting": "[4]; 10 mg/kg", "result": "not active"}]}
{"smiles": "CC12CC3CC(C)(C1)CC(N)(C3)C2", "note": "[memantine]", "values": [{"measurement": "active dose of reference molecules in this model", "setting": "[5]", "result": 1, "unit": "mg/kg"}]}
